Measurements from patent publication US10071992B2, “Diacylglycerol acyl transferase 2 inhibitors” (Pfizer Inc., priority 2016, dated 2018).

Tests used:
[1] = target: human DGAT2 (hDGAT2) (Homo sapiens (Human), UniProt Q96PD7); experiment: In vitro DGAT2 assay, determination of IC50 values for DGAT2 inhibitors; type: biochemical
Description: Recombinant baculovirus for the FLAG-tagged hDGAT2 was generated in SF9 insect cells using Bac-to-Bac baculovirus expression system (Invitrogen) according to the manufacturer's protocol. For the expression of hDGAT2, SF9 cells (20 L) grown in Sf90011 media were infected with hDGAT2 baculovirus at a multiplicity of infection of 1 in a Wave Bioreactor System 20/50P wave bag (GE Healthcare). After 40 hours of infection, the cells were then harvested by centrifugation at 5,000×g. The cell pellets were washed by resuspending in phosphate buffered saline (PBS) and collected by centrifugation at 5,000×g. The cell paste was flash frozen in liquid N2 and stored at −80° C. until needed. All operations below were at 4° C. unless otherwise noted. The cells were resuspended in lysis buffer (50 mM Tris-HCl, pH 8.0, 250 mM sucrose) including 1 mM ethylenediaminetetraacetic acid (EDTA) and the complete protease inhibitor cocktail (Roche Diagnostics) at a ratio of 3 ml buffer per 1 g cell paste. The cells were lysed by dounce homogenizer. The cell debris was removed by centrifugation at 1,000×g for 20 min, and the supernatant was centrifuged at 100,000×g for 1 hour. The resulting pellet was rinsed three times by filling ultracentrifuge tubes to the top with ice cold PBS before decanting. The washed pellet was resuspended with gentle stirring for 1 hour in lysis buffer containing 8 mM 3-[(3-cholamidopropyl)dimethylammonio]-1-propanesulfonate (CHAPS) at a ratio of 1 mL buffer per 1 g of original cell paste and centrifuged again at 100,000×g for 1 hour. The resulting supernatant was aliquotted, flash frozen in liquid N2, and stored at −80° C. until use.
To 1 μL of compounds dissolved in 100% DMSO and spotted at the bottom of each well, 5 μL of 0.04% bovine serum albumin (BSA) (fatty acid free, Sigma Aldrich) was added and the mixture was incubated at room temperature for 15 minutes. hDGAT2 membrane fractions were diluted in 100 mM Hepes-NaOH, pH 7.4, 20 mM MgCl2 containing 200 nM methyl arachidonyl fluorophosphonate (Cayman Chemical; dried from ethyl acetate stock solution under argon gas and dissolved in DMSO as 5 mM stock). 10 μL of this enzyme working solution was added to the plates and incubation continued for 2 hours at room temperature. DGAT2 reactions were initiated by the addition of 4 μL of substrates containing 30 μM [1-^14C]decanoyl-CoA (custom-synthesized by Perkin Elmer, 50 mCi/mmol) and 125 μM 1,2-didecanoyl-sn-glycerol (Avanti Polar Lipids) dissolved in 12.5% acetone. The reaction mixtures were incubated at room temperature for 40 min and the reactions were stopped by addition of 5 μL of 1% H3PO4. After the addition of 45 μL MicroScint-E (Perkin-Elmer), plates were sealed with Top Seal-A covers (Perkin-Elmer) and phase partitioning of substrates and products was achieved using a HT-91100 microplate orbital shaker (Big Bear Automation, Santa Clara, Calif.). Plates were centrifuged at 2,000×g for 1 minute in an Allegra 6R Centrifuge (Beckman Coulter) and then were sealed again with fresh covers before reading in a 1450 Microbeta Wallac Trilux Scintillation Counter (Perkin Elmer). DGAT2 activity was measured by quantifying the generated product [^14C]tridecanoylglycerol in the upper organic phase.
Inhibitors were tested at eleven different concentrations to generate IC50 values for each compound.

[2] = Metabolic clearance in HLM (hepatic clearance profile); type: in vitro ADME; details: human, human liver microsomes, read-out: Clint, app in HLM
[3] = target: DGAT2 (Homo sapiens (Human), UniProt Q96PD7); experiment: IC50 values for DGAT2 inhibitors in human hepatocytes; type: cell-based; details: geometric mean, N=10; cryopreserved human hepatocytes, DGAT1 inhibitor at 3 μM present, [1,3-14C]-glycerol incorporation
DGAT2, sequence (Q96PD7 whole entry): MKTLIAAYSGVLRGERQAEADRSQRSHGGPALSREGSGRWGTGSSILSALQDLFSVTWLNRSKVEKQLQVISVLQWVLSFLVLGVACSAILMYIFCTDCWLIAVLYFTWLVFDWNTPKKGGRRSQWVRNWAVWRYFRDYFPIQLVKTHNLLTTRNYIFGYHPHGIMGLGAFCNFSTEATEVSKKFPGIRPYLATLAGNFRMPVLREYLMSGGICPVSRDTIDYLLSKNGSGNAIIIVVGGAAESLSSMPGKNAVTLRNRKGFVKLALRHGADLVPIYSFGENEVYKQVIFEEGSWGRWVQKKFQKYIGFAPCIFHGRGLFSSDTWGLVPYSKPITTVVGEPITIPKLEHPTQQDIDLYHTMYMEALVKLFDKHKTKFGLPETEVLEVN
Description: After 24 hours overnight recovery period, the cells were overlayed with media containing 250 μg/ml Matrigel (BD Biosciences, San Jose, Calif.). The following day, media was aspirated and replaced with serum-free Williams Media E (Life Technologies, Grand Island, N.Y.) containing 400 μM sodium dodecanoate (Sigma-Aldrich, St. Louis, Mo.). […] After separation, radiolabeled lipids were visualized using a Molecular Dynamics' PhosphorImager system.

[4] = geometric mean, hDGAT2 membrane fraction, [1-14C]decanoyl-CoA and 1,2-didecanoyl-sn-glycerol
[5] = Table 3, comparison with WO2015140658 Example 19.21

human DGAT2 (hDGAT2), sequence (Q96PD7 whole entry): as above

Row | IC50 [1, 4] | SMILES | further results
1 | 196 nM | CCOc1cccnc1Oc1cncc(-c2ncc(C(=O)NC3CCS(=O)(=O)C3)cn2)c1 (centres unmarked) [Example 3.3, N-(1,1-dioxidotetrahydrothiophen-3-yl)-2-(5-((3-ethoxypyridin-2-yl)oxy)pyridin-3-yl)pyrimidine-5-carboxamide] | –
2 | 83 nM | CCOc1cccnc1Oc1cncc(-c2ncc(C(=O)NC(C)(C)CO)nn2)c1 [Example 7, 3-{5-[(3-ethoxypyridin-2-yl)oxy]pyridin-3-yl}-N-(1-hydroxy-2-methylpropan-2-yl)-1,2,4-triazine-6-carboxamide] | –
3 | – | CCOc1ccccc1O[C@@H]1CCCN(c2ncc(C(=O)NC(C)(C)CO)cn2)C1 [WO2015140658 Example 19.21, reference compound] | IC50 [1, 5]: 7.9 nM; microsomal CLint [2]: 121 µL/min/mg
4 | 3.7 nM | CCOc1cc(F)cnc1Oc1cncc(-c2ncc(C(=O)N[C@H]3CCOC3)cn2)c1 [Example 8, (S)-2-(5-((3-Ethoxy-5-fluoropyridin-2-yl)oxy)pyridin-3-yl)-N-(tetrahydrofuran-3-yl)pyrimidine-5-carboxamide] | –
5 | 35.4 nM | CCOc1cccnc1Oc1cncc(-c2ncc(C(=O)NC(C)(C)CS(C)(=O)=O)cn2)c1 [Example 3.6, 2-(5-((3-ethoxypyridin-2-yl)oxy)pyridin-3-yl)-N-(2-methyl-1-(methylsulfonyl)propan-2-yl)pyrimidine-5-carboxamide] | –
6 | 7.4 nM | CCOc1cccnc1Oc1cncc(-c2ncc(C(=O)NC(C)(C)C#N)cn2)c1 [Example 4, N-(2-cyanopropan-2-yl)-2-(5-((3-ethoxypyridin-2-yl)oxy)pyridin-3-yl)pyrimidine-5-carboxamide] | –
7 | 238 nM | CCOc1nccnc1Oc1cncc(-c2ncc(C(=O)NC(C)(C)CO)cn2)c1 [Example 3.5, 2-(5-((3-ethoxypyrazin-2-yl)oxy)pyridin-3-yl)-N-(1-hydroxy-2-methylpropan-2-yl)pyrimidine-5-carboxamide] | –
8 | 14 nM | CCOc1cccnc1Oc1cncc(-c2ncc(C(=O)NC(C)(C)CO)cn2)c1 [Example 5, 2-(5-((3-Ethoxypyridin-2-yl)oxy)pyridin-3-yl)-N-(1-hydroxy-2-methylpropan-2-yl)pyrimidine-5-carboxamide] | IC50 [1, 5]: 14 nM; microsomal CLint [2]: 18 µL/min/mg
9 | 83.6 nM | CCOc1cccnc1Oc1cncc(-c2ncc(C(=O)NC(C)(CO)CO)cn2)c1 [Example 3.2, N-(1,3-dihydroxy-2-methylpropan-2-yl)-2-(5-((3-ethoxypyridin-2-yl)oxy)pyridin-3-yl)pyrimidine-5-carboxamide] | –
10 | – | CCOc1cccnc1Oc1cncc(-c2ncc(C(=O)N[C@H]3CCOC3)cn2)c1 [Example 1, (S)-2-(5-((3-ethoxypyridin-2-yl)oxy)pyridin-3-yl)-N-(tetrahydrofuran-3-yl)pyrimidine-5-carboxamide] | IC50 [3]: 2.8 nM
11 | 13.5 nM | CCOc1cccnc1Oc1cncc(-c2ncc(C(=O)NC3(C)CCS(=O)(=O)C3)cn2)c1 (centres unmarked) [Example 3.1, 2-(5-((3-ethoxypyridin-2-yl)oxy)pyridin-3-yl)-N-(3-methyl-1,1-dioxidotetrahydrothiophen-3-yl)pyrimidine-5-carboxamide] | –

Row | SMILES | IC50 [1, 4] | further results
12 | CCOc1cccnc1Oc1cncc(-c2ncc(C(=O)N[C@@H]3CCOC3)cn2)c1 [Example 2, (R)-2-(5-((3-Ethoxypyridin-2-yl)oxy)pyridin-3-yl)-N-(tetrahydrofuran-3-yl)pyrimidine-5-carboxamide] | 200 nM | –
13 | CCOc1cccnc1Oc1cncc(-c2ncc(C(=O)N[C@H]3CCOC3)nn2)c1 [Example 3.4, (S)-3-(5-((3-ethoxypyridin-2-yl)oxy)pyridin-3-yl)-N-(tetrahydrofuran-3-yl)-1,2,4-triazine-6-carboxamide] | 181 nM | –
14 | O=C(N[C@H]1CCOC1)c1cnc(-c2cncc(Oc3ncccc3OCCF)c2)nc1 [Example 3.7, (S)-2-(5-((3-(2-fluoroethoxy)pyridin-2-yl)oxy)pyridin-3-yl)-N-(tetrahydrofuran-3-yl)pyrimidine-5-carboxamide] | 66.5 nM | –
